Laboratory results from PMC7673538 (PLoS Biology, 2020).
Like-named read-outs stand apart in the source and are kept apart here.

Columns and labels:
in vitro [1] = settings: human
CV-B3 [2] = experiment: microbe, parasite or virus in culture; format: cell-based, coxsackievirus B3; settings: for EC50: Enterovirus B
CV-B3 [3] = experiment: microbe, parasite or virus in culture; format: cell-based, coxsackievirus B3; settings: Enterovirus B
HRV-B14 = experiment: microbe, parasite or virus in culture; format: cell-based, human rhinovirus; settings: Human rhinovirus sp., HRVB14, HeLa R19, read-out: EC50 HRV-B14
CV-B3 [4] = experiment: microbe, parasite or virus in culture; format: cell-based, coxsackievirus B3; settings: Enterovirus B, CVB3, BGM
in vitro [5] = settings: human; remark: listed apart in the source
EV-D68 = experiment: microbe, parasite or virus in culture; format: cell-based, enterovirus D68; settings: Enterovirus D
EV-A71 = experiment: microbe, parasite or virus in culture; format: cell-based, enterovirus A71; settings: Enterovirus A, EVA71, HeLa R19, read-out: EC50 EV-A71
PV-1 = experiment: microbe, parasite or virus in culture; format: cell-based, poliovirus 1; settings: Enterovirus C, HeLa R19, read-out: EC50 PV-1
CV-A24 = experiment: microbe, parasite or virus in culture; format: cell-based, coxsackievirus A24; settings: Enterovirus C, CVA24, HeLa R19, read-out: EC50 CV-A24
in vitro [6] = settings: monkey
HRV-A2 = experiment: microbe, parasite or virus in culture; format: cell-based, human rhinovirus; settings: Human rhinovirus sp., HRVA2, HeLa R19, read-out: EC50 HRV-A2
[7] = CVB3, HeLa R19, read-out: CV-B3 EC50 Average
[8] = CVB3, HeLa R19, read-out: CV-B3 Exp 1 EC50
[9] = CVB3, HeLa R19, read-out: CV-B3 Exp2 EC50
[10] = CVB3, HAP1, read-out: EC50 Hap1 Average
[11] = CVB3, HAP1, read-out: Exp 2 EC50 Hap1
[12] = EVD68, HeLa R19, read-out: EC50 EV-D68
[13] = EVD68, HeLa R19, read-out: EC50 Exp1
[14] = EVD68, HeLa R19, read-out: EC50 Exp2
[15] = CVB3, HeLa R19, read-out: EC50 HelaR19 Average
[16] = CVB3, HeLa R19, read-out: Exp 1 EC50 HelaR19
[17] = CVB3, HeLa R19, read-out: Exp 2 EC50 HelaR19

Question: With `CNCC(=O)N(Cc1ccc(F)cc1)c1ccc(OC)cc1` [Compound 6, N-(4-fluorobenzyl)-N-(4-methoxyphenyl)-2-(methylamino)acetamide] as the compound, how does the CC50 (in vitro [1]; CC50) read?
Answer: Its CC50 is over 30 µM.

Question: And the CC50 (in vitro [1]; CC50 Average)?
Answer: The CC50 was over 30 µM.

Question: What about the CC50 (in vitro [1]; Exp 1 CC50) of the same compound?
Answer: Its CC50 is over 30 µM.

Question: And the CC50 (in vitro [1]; Exp2 CC50)?
Answer: Its CC50 is over 30 µM.

Question: And the “antiviral activity against CV-B3 (in words)” value (CV-B3 [2])?
Answer: Its value is “loss of antiviral activity”.

Question: And the EC50 (CV-B3 [2]; CVB3, HeLa R19)?
Answer: The EC50 was over 30 µM.

Question: What about the EC50 (CV-B3 [2]; [7]) of the same compound?
Answer: Its EC50 is over 30 µM.

Question: And the EC50 (CV-B3 [2]; [8])?
Answer: The EC50 was over 30 µM.

Question: And the EC50 (CV-B3 [2]; [9])?
Answer: Its EC50 is over 30 µM.

Question: Which EC50 (CV-B3 [3]; CVB3, HAP1) does the source give for `O=C(c1ccco1)N(Cc1ccccc1)c1ccc(C(F)(F)F)cc1` [Compound 19i, N-benzyl-N-(4-(trifluoromethyl)phenyl)furan-2-carboxamide] here?
Answer: Its EC50 is 1.75 ± 0.29 µM.

Question: And the EC50 (CV-B3 [3]; [10])?
Answer: Its EC50 is 1.74 µM.

Question: What about the EC50 (CV-B3 [3]; [11]) of the same compound?
Answer: The EC50 was 2.03 µM.

Question: And the EC50 (HRV-B14)?
Answer: Its EC50 is over 30 µM.

Question: What about the EC50 (CV-B3 [4]; read-out: EC50 BGM Average) of the same compound?
Answer: The EC50 was 1.71 µM.

Question: And the EC50 (CV-B3 [4]; read-out: Exp 1 EC50 BGM)?
Answer: The EC50 was 1.42 µM.

Question: What about the EC50 (CV-B3 [4]; read-out: Exp 2 EC50 BGM) of the same compound?
Answer: Its EC50 is 1.99 µM.

Question: What about the CC50 (in vitro [5]; CC50) of the same compound?
Answer: Its CC50 is over 100 µM.

Question: What about the CC50 (in vitro [5]; CC50 Hap1 Average) of the same compound?
Answer: The CC50 was over 100 µM.

Question: What about the CC50 (in vitro [5]; Exp 1 CC50 Hap1) of the same compound?
Answer: Its CC50 is over 100 µM.

Question: What about the CC50 (in vitro [5]; Exp 2 CC50 Hap1) of the same compound?
Answer: Its CC50 is over 100 µM.

Question: What about the EC50 (EV-D68; [12]) of the same compound?
Answer: Its EC50 is 3.35 ± 0.19 µM.

Question: And the EC50 (EV-D68; [13])?
Answer: The EC50 was 3.16 µM.

Question: What about the EC50 (EV-D68; [14]) of the same compound?
Answer: The EC50 was 3.54 µM.

Question: What about the EC50 (EV-A71) of the same compound?
Answer: The EC50 was over 30 µM.

Question: What about the EC50 (PV-1) of the same compound?
Answer: The EC50 was over 30 µM.

Question: What about the “cytotoxicity (in words)” value (HeLa R19 cells; human, monkey) of the same compound?
Answer: The value was “cytotoxicity in a similar range as the parental compound 1”.

Question: And the CC50 (in vitro [1]; CC50 Average)?
Answer: Its CC50 is over 30 µM.

Question: And the CC50 (in vitro [1]; CC50 HelaR19 Average)?
Answer: Its CC50 is 68.5 µM.

Question: And the CC50 (in vitro [1]; Exp 1 CC50)?
Answer: Its CC50 is over 30 µM.

Question: What about the CC50 (in vitro [1]; Exp 1 CC50 HelaR19) of the same compound?
Answer: The CC50 was 68 µM.

Question: And the CC50 (in vitro [1]; Exp2 CC50)?
Answer: The CC50 was over 30 µM.

Question: And the CC50 (in vitro [1]; Exp 2 CC50 HelaR19)?
Answer: Its CC50 is 69 µM.

Question: And the EC50 (CV-A24)?
Answer: Its EC50 is over 30 µM.

Question: What about the CC50 (in vitro [6]; CC50) of the same compound?
Answer: The CC50 was 55.4 ± 0.05 µM.

Question: What about the CC50 (in vitro [6]; CC50 BGM Average) of the same compound?
Answer: The CC50 was 55.4 µM.

Question: And the CC50 (in vitro [6]; Exp 1 CC50 BGM)?
Answer: The CC50 was 55.3 µM.

Question: What about the CC50 (in vitro [6]; Exp 2 CC50 BGM) of the same compound?
Answer: Its CC50 is 55.5 µM.

Question: What about the “effect of the substitution on antiviral activity against CV-B3 (in words)” value (CV-B3 [2]) of the same compound?
Answer: Its value is “had little effect”.

Question: And the EC50 (CV-B3 [2]; CVB3, HeLa)?
Answer: The EC50 was 2.75 ± 0.25 µM.

Question: And the EC50 (CV-B3 [2]; [7])?
Answer: Its EC50 is 2.45 µM.

Question: And the EC50 (CV-B3 [2]; [8])?
Answer: Its EC50 is 2.35 µM.

Question: What about the EC50 (CV-B3 [2]; [9]) of the same compound?
Answer: The EC50 was 2.55 µM.

Question: And the EC50 (CV-B3 [2]; [15])?
Answer: Its EC50 is 2.78 µM.

Question: And the EC50 (CV-B3 [2]; [16])?
Answer: Its EC50 is 2.52 µM.

Question: What about the EC50 (CV-B3 [2]; [17]) of the same compound?
Answer: Its EC50 is 3.03 µM.

Question: What about the EC50 (HRV-A2) of the same compound?
Answer: The EC50 was over 30 µM.

Question: Which CC50 (in vitro [1]; CC50) does the source give for `COc1ccc(N(Cc2ccc(F)cc2)Cc2ccco2)cc1` [Compound 5g, N-(4-fluorobenzyl)-N-(furan-2-ylmethyl)-4-methoxyaniline] here?
Answer: The CC50 was over 30 µM.

Question: What about the CC50 (in vitro [1]; CC50 Average) of the same compound?
Answer: The CC50 was over 30 µM.

Question: And the CC50 (in vitro [1]; Exp 1 CC50)?
Answer: Its CC50 is over 30 µM.

Question: What about the CC50 (in vitro [1]; Exp2 CC50) of the same compound?
Answer: Its CC50 is over 30 µM.

Question: What about the “antiviral activity against CV-B3 (in words)” value (CV-B3 [2]) of the same compound?
Answer: Its value is “loss of antiviral activity”.

Question: What about the EC50 (CV-B3 [2]; CVB3, HeLa R19) of the same compound?
Answer: The EC50 was over 30 µM.

Question: And the EC50 (CV-B3 [2]; [7])?
Answer: Its EC50 is over 30 µM.

Question: And the EC50 (CV-B3 [2]; [8])?
Answer: Its EC50 is over 30 µM.

Question: What about the EC50 (CV-B3 [2]; [9]) of the same compound?
Answer: Its EC50 is over 30 µM.

Question: With `COc1ccc(N(Cc2ccc(F)cc2)S(=O)(=O)c2ccco2)cc1` [Compound 5b, N-(4-fluorobenzyl)-N-(4-methoxyphenyl)furan-2-sulfonamide] as the compound, how does the CC50 (in vitro [1]; CC50) read?
Answer: The CC50 was over 30 µM.

Question: And the CC50 (in vitro [1]; CC50 Average)?
Answer: The CC50 was over 30 µM.

Question: What about the CC50 (in vitro [1]; Exp 1 CC50) of the same compound?
Answer: Its CC50 is over 30 µM.

Question: What about the CC50 (in vitro [1]; Exp2 CC50) of the same compound?
Answer: Its CC50 is over 30 µM.

Question: And the “antiviral activity against CV-B3 (in words)” value (CV-B3 [2])?
Answer: The value was “loss of antiviral activity”.

Question: And the EC50 (CV-B3 [2]; CVB3, HeLa R19)?
Answer: The EC50 was over 30 µM.

Question: What about the EC50 (CV-B3 [2]; [7]) of the same compound?
Answer: Its EC50 is over 30 µM.

Question: What about the EC50 (CV-B3 [2]; [8]) of the same compound?
Answer: The EC50 was over 30 µM.

Question: What about the EC50 (CV-B3 [2]; [9]) of the same compound?
Answer: Its EC50 is over 30 µM.

Question: Which results are given for `COc1ccc(N(Cc2ccc(F)cc2)C(=O)c2ccc[nH]2)cc1` [Compound 5c, N-(4-fluorobenzyl)-N-(4-methoxyphenyl)-1H-pyrrole-2-carboxamide]?
Answer: EC50 (CV-B3 [3]; [10]): 2.52 µM; EC50 (CV-B3 [3]; CVB3, HAP1, read-out: Exp 1 EC50 Hap1): 2.05 µM; EC50 (CV-B3 [3]; [11]): 2.99 µM; EC50 (HRV-B14): > 30 µM; EC50 (CV-B3 [4]; read-out: EC50 BGM Average): 4.18 µM; EC50 (CV-B3 [4]; read-out: Exp 1 EC50 BGM): 3.86 µM; EC50 (CV-B3 [4]; read-out: Exp 2 EC50 BGM): 4.5 µM; CC50 (in vitro [5]; CC50): > 100 µM; CC50 (in vitro [5]; CC50 Hap1 Average): > 100 µM; CC50 (in vitro [5]; Exp 1 CC50 Hap1): > 100 µM; CC50 (in vitro [5]; Exp 2 CC50 Hap1): > 100 µM; EC50 (EV-D68; [12]): 3.47 ± 0.08 µM; EC50 (EV-D68; [13]): 3.39 µM; EC50 (EV-D68; [14]): 3.54 µM; EC50 (EV-A71): > 30 µM; EC50 (PV-1): > 30 µM; cytotoxicity (in words) (HeLa R19 cells): no cytotoxicity; CC50 (in vitro [1]; CC50 Average): > 30 µM; CC50 (in vitro [1]; CC50 HelaR19 Average): > 100 µM; CC50 (in vitro [1]; Exp 1 CC50): > 30 µM; CC50 (in vitro [1]; Exp 1 CC50 HelaR19): > 100 µM; CC50 (in vitro [1]; Exp2 CC50): > 30 µM; CC50 (in vitro [1]; Exp 2 CC50 HelaR19): > 100 µM; EC50 (CV-A24): > 30 µM; CC50 (in vitro [6]; CC50): > 100 µM; CC50 (in vitro [6]; CC50 BGM Average): 56 µM; CC50 (in vitro [6]; Exp 1 CC50 BGM): 58 µM; CC50 (in vitro [6]; Exp 2 CC50 BGM): 54 µM; EC50 (CV-B3 [2]; CVB3, HeLa): 4.82 ± 0.14 µM; EC50 (CV-B3 [2]; [7]): 3.01 µM; EC50 (CV-B3 [2]; [8]): 3.21 µM; EC50 (CV-B3 [2]; [9]): 2.81 µM; EC50 (CV-B3 [2]; [15]): 4.81 µM; EC50 (CV-B3 [2]; [16]): 4.95 µM; EC50 (CV-B3 [2]; [17]): 4.68 µM; EC50 (HRV-A2): > 30 µM
